Test system: 186277-243-T-J2-PDC spheroids with HUVEC/MSC, viability
Assay: Anticancer human tumor 186277-243-T-J2-PDC patient-derived colon adenocarcinoma cell line growth inhibition [CLK]
Conditions: for IC50: curve of first compound; for viability, T/C: stronger effect = lower value; active = viability on the fitted dose curve at most 10% of control; inactive = the rest
Excerpt: A high-throughput screen of multi-cell type tumor spheroids was designed to identify active combinations of […] and targeted small molecules. Complex spheroids include a stromal component modeled by human endothelial cells (HUVEC) and fibroblasts modeled by human mesenchymal stem cells (MSCs). The concentration ranges selected for each drug and investigational agent were based upon clinically achievable concentrations if the clinical Cmax of the agent was known.
Compounds. The drugs and investigational agents: cirtuvivint (SM08502; NSC835563), CC-671 (NSC850746), vemurafenib (NSC761431), tapotoclax (NSC804041), sotorasib (NSC818433), adagrasib (NSC831453), MRTX-1133 (NSC836407), BAY2416964 (NSC825713), copanlisib (NSC816437), inavolisib (NSC800729), abemaciclib (NSC768073), osimertinib (NSC779217), entinostat (NSC756642), eltanexor (KPT-8602, NSC794443), venetoclax (NSC766270), ceralasertib (NSC777638), bortezomib (NSC756655), olaparib (NSC753686), talazoparib (NSC767125), alisertib (NSC759677), peposertib (NSC802822), gemcitabine (NSC613327), 5-fluorouracil (NSC19893), SN-38 (NSC673596), oxaliplatin (NSC266046), paclitaxel (NSC125973), and doxorubicin (NSC123127), were obtained from the National Cancer Institute (NCI) Developmental Therapeutics Program Chemical Repository. The FDA-approved anticancer drug set is available from the Developmental Therapeutics Program at https://dtp.cancer.gov/organization/dscb/obtaining/available plates.htm. […] The stock solutions were prepared in dimethyl sulfoxide (DMSO, Sigma-Aldrich, St. Louis, MO, cat. D2650), except for the platinum complexes which were prepared in saline (Quality Biological, Gaithersburg, MD, cat. 114-055-101), at 800-fold the tested concentration and stored at -70 degrees C prior to their use. All drugs and investigational agents were tested over a range starting from a high concentration at or near the clinical Cmax and decreasing in half-log increments. If the clinical Cmax for an agent had not been determined, the highest concentration tested was 10 microM.
Cell Culture. All cells were maintained in an incubator at 37 degrees C and 5% CO2 with 95% humidity. The PDC lines were cultured according to standard operating procedures established by the NCI PDMR. Briefly, all PDCs were thawed and cultured in Matrigel-coated flasks prepared with a working solution of 1X Ham's F-12 nutrient mix, without supplementation (Invitrogen, Waltham, MA, cat. 11765054), 100 U/mL penicillin-streptomycin (Invitrogen, cat. 15140122), and 2.5% Matrigel (Corning Inc., Corning, NY, cat. 354248) for the first three passages. The 947758-054-R-J2-PDC line was cultured in 6B/Colon 1A media, which includes advanced DMEM/F-12 (Thermo Fisher Scientific, cat. 12634028), 10 mM HEPES (Thermo Fisher Scientific, cat. 15630080), 1X GlutaMAX supplement (Thermo Fisher Scientific, cat. 35050061), 0.1 mg/mL primocin (InvivoGen, cat. ant-pm-2), 10% defined fetal bovine serum, heat inactivated (HyClone Laboratories Inc., cat. SH30070.03HI), 1.25 mM N-Acetyl-L-cysteine (Sigma-Aldrich, cat. A9165), 10 mM nicotinamide (Sigma-Aldrich, cat. N0636), 1X B-27 supplement (Thermo Fisher Scientific, cat. 17504044), 1X N-2 supplement (Thermo Fisher Scientific, cat. 17502048), and 10 microM Y-27632 dihydrochloride (Tocris Bioscience, cat. 1254). The 876862-298-R-J1-PDC was cultured in 6E media, which includes all 6B/Colon 1A media components plus 50% L-WRN conditioned media (ATCC, cat. CRL-3276), 50 ng/mL recombinant human EGF recombinant protein (hEGF; Thermo Fisher Scientific, cat. PHG0311), 10 ng/mL recombinant human fibroblast growth factor 10 (hGFG-10; PeproTech, cat. 100-26), 1 ng/mL recombinant human fibroblast growth factor 2 (hFGF-2; PeproTech, cat. 100-18B), and 1 µM prostaglandin E2 (PGE2; Tocris, cat. 2296). The 227483-062-R1-J1-PDC line was cultured in Panc media, containing all 6E components except hFGF-2, with the addition of 500 nM SB-431542 (Selleckchem, cat. S1067) and 10 nM gastrin (Tocris, cat. 3006). […]

[1] = second compound 0.0316 µM, first compound 0.0316 µM
[2] = second compound 0.0316 µM, first compound 0.1 µM
[3] = second compound 0.0316 µM, first compound 0.316 µM
[4] = second compound 0.0316 µM, first compound 1 µM
[5] = second compound 0.0316 µM, first compound 3.16 µM
[6] = second compound 0.0316 µM, first compound 10 µM
[7] = second compound 0.1 µM, first compound 0.0316 µM
[8] = second compound 0.1 µM, first compound 0.1 µM
[9] = second compound 0.1 µM, first compound 0.316 µM
[10] = second compound 0.1 µM, first compound 1 µM
[11] = second compound 0.1 µM, first compound 3.16 µM
[12] = second compound 0.1 µM, first compound 10 µM
[13] = second compound 0.316 µM, first compound 0.0316 µM
[14] = second compound 0.316 µM, first compound 0.1 µM
[15] = second compound 0.316 µM, first compound 0.316 µM
[16] = second compound 0.316 µM, first compound 1 µM
[17] = second compound 0.316 µM, first compound 3.16 µM
[18] = second compound 0.316 µM, first compound 10 µM
[19] = second compound 1 µM, first compound 0.0316 µM
[20] = second compound 1 µM, first compound 0.1 µM
[21] = second compound 1 µM, first compound 0.316 µM
[22] = second compound 1 µM, first compound 1 µM
[23] = second compound 1 µM, first compound 3.16 µM
[24] = second compound 1 µM, first compound 10 µM
[25] = second compound 3.16 µM, first compound 0.0316 µM
[26] = second compound 3.16 µM, first compound 0.1 µM
[27] = second compound 3.16 µM, first compound 0.316 µM
[28] = second compound 3.16 µM, first compound 1 µM
[29] = second compound 3.16 µM, first compound 3.16 µM
[30] = second compound 3.16 µM, first compound 10 µM
[31] = second compound 10 µM, first compound 0.0316 µM
[32] = second compound 10 µM, first compound 0.1 µM
[33] = second compound 10 µM, first compound 0.316 µM
[34] = second compound 10 µM, first compound 1 µM
[35] = second compound 10 µM, first compound 3.16 µM
[36] = second compound 10 µM, first compound 10 µM
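Also: compound exposure lasted seven days before readout.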
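For viability, T/C in this document: 100% = DMSO vehicle control wells.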

CC1(C)CCC(CN2CCN(c3ccc(C(=O)NS(=O)(=O)c4ccc(NCC5CCOCC5)c([N+](=O)[O-])c4)c(Oc4cnc5[nH]ccc5c4)c3)CC2)=C(c2ccc(Cl)cc2)C1 + CN1CCN(c2cc(C(=O)Nc3cc4cc(-c5cnn(C)c5)ccc4cn3)ccn2)CC1
active: viability, T/C [6] 8.6% | viability, T/C [12] 4.42% | viability, T/C [18] 2.48% | viability, T/C [19] 0.62% | viability, T/C [20] 0.92% | viability, T/C [21] 0.31% | viability, T/C [22] 0.75% | viability, T/C [23] 1.8% | viability, T/C [24] 0.48% | viability, T/C [25] 1.95% | viability, T/C [26] 0.91% | viability, T/C [27] 1.71% | viability, T/C [28] 1.07% | viability, T/C [29] 1.36% | viability, T/C [30] 0.41% | viability, T/C [31] 0.95% | viability, T/C [32] 1.04% | viability, T/C [33] 1.34% | viability, T/C [34] 0.91% | viability, T/C [35] 0.55% | viability, T/C [36] 0.2%
inactive: viability, T/C [1] 92.5% | viability, T/C [2] 93.2% | viability, T/C [3] 94.6% | viability, T/C [4] 92.1% | viability, T/C [5] 104% | viability, T/C [7] 82.4% | viability, T/C [8] 76.3% | viability, T/C [9] 87.6% | viability, T/C [10] 94.5% | viability, T/C [11] 101% | viability, T/C [13] 30.1% | viability, T/C [14] 32.8% | viability, T/C [15] 23.6% | viability, T/C [16] 30.9% | viability, T/C [17] 25.3%
< 31.6 nM: IC50 (second compound 0.316 µM) | IC50 (second compound 1 µM) | IC50 (second compound 3.16 µM) | IC50 (second compound 10 µM)
5350 nM: IC50 (second compound 0.1 µM)
5780 nM: IC50 (second compound 0.0316 µM)

COc1ccc([C@@H](O)c2cc(-c3ncnc4cc(N5CCOCC5)ccc34)c(F)cc2Cl)nn1 + CNC(=O)c1ccc(Nc2nc(OC3CCCC3)c3c(-c4ccc5nc(C)oc5c4)c[nH]c3n2)c(OC)c1
< 31.6 nM: IC50 (second compound 0.316 µM) | IC50 (second compound 1 µM) | IC50 (second compound 3.16 µM) | IC50 (second compound 10 µM)
384 nM: IC50 (second compound 0.1 µM)
inactive: viability, T/C [1] 102% | viability, T/C [2] 86.8% | viability, T/C [3] 110% | viability, T/C [4] 87.6% | viability, T/C [5] 73.7% | viability, T/C [6] 43% | viability, T/C [7] 71.8% | viability, T/C [8] 62.5% | viability, T/C [9] 50.2% | viability, T/C [10] 42.7% | viability, T/C [11] 31.9% | viability, T/C [12] 23.5% | viability, T/C [13] 38.7% | viability, T/C [14] 40.7% | viability, T/C [15] 29.9% | viability, T/C [16] 23.7% | viability, T/C [17] 18.6% | viability, T/C [18] 14.5% | viability, T/C [19] 30.4% | viability, T/C [20] 25.2% | viability, T/C [21] 23.4% | viability, T/C [22] 16.2% | viability, T/C [23] 12.9% | viability, T/C [24] 12.2% | viability, T/C [25] 27.1% | viability, T/C [26] 29.2% | viability, T/C [27] 23.2% | viability, T/C [28] 18.5% | viability, T/C [29] 16% | viability, T/C [30] 10.7% | viability, T/C [31] 28.7% | viability, T/C [32] 29.5% | viability, T/C [33] 23.2% | viability, T/C [34] 19.8% | viability, T/C [35] 17.2% | viability, T/C [36] 9%
7660 nM: IC50 (second compound 0.0316 µM)

Reference: PubChem BioAssay AID2060625 (Molecular Pharmacology Branch, DTP, NCI, 2025)
